Laboratory results published in patent US20210106679A1, “Silaffin Silica Particle Adjuvant” (UNIVERSITÄT WIEN, priority 2017, published 2021).
“Also recorded” adds a separate entry of the source. *1 amine or outer side, *2 acyl side, *3 side chain or, on linkers, in order; H or OH if unused. Where no end group is shown, it is not given here. [ ]: non-standard residue; d: D form. εLys = N[C@@H](CCCCN[*:1])C(=O)[*:2]

What was measured:
[1] = from a solution of silicic acid; cited from earlier work
[2] = Circular dichroism of peptide solutions; assay type: physicochemical; conditions: for CD spectrum profile: 0.8 mM in 50 mM phosphate buffer pH 7, after 24 h incubation
Procedure: CD spectra were recorded on peptide solutions at 0.8 mM (by weight) in 50 mM phosphate buffer at pH 7. Solutions had been incubated at room temperature for a minimum of 24 h. Scans were performed in 1 nm increments with 3 s scans at 20° C. and averaged over 5 scans.
The CD spectrum of peptide 1 in the A range of 200-250 nm was fitted by use of the novel Beta Structure Selection algorithm with normalized root mean square deviation of 0.018 (A. Micsonai, F. Wien, L. Kernya, Y.-H. Lee, Y. Goto, M. Réfrégiers and J. Kardos, Proc. Natl. Acad. Sci., 2015, 112, E3095-E3103). The algorithm predicts that the secondary or tertiary structure of the peptide consists of approximately 56% random coils, 27% beta-sheets and 17% beta-turns.

[3] = Silica precipitation (mineralisation) by peptides; conditions: silicic acid 25 mM, peptide 0.5 mg/mL, 50 mM phosphate buffer pH 7, RT
Procedure: The individual members of the peptide library were subjected to silica mineralisation conditions analogous to those used for the R5 peptide (C. C. Lechner and C. F. W. Becker, Chem. Sci., 2012, 3, 3500). Phosphate buffered solution at pH 7 was used as a background for the reaction, and peptides were individually incubated in this buffer for 24 h prior to silica precipitation. White precipitate was observable in all samples within the first five minutes following addition of the silicic acid.
Peptides were dissolved to a final concentration of 0.5 mg/mL in 50 mM potassium phosphate buffer at pH 7.0 and left standing at room temperature overnight. Silicic acid was generated by hydrolysis of 250 mM tetramethoxysilane in 1 mM aqueous HCl for 4 min. Silica precipitation reactions were initiated by addition of silicic acid to peptide solutions to a final concentration of 25 mM. Reactions were incubated at RT for 30 min. Silica precipitates were collected by centrifugation (5 min, 16.873×g) and washed twice with water. […] All precipitations were carried out in triplicates.

[4] = TEM imaging of peptides and peptide-silica mixtures; assay type: physicochemical; conditions: phosphate buffer, absence of silicic acid
Procedure: Peptide and peptide-silica mixtures suspended in 50 mM phosphate buffer were applied onto carbon coated copper grid and subsequently viewed with Philips CM200 electron microscope operated at 200 kV.

[5] = CD 200-250 nm fitted with Beta Structure Selection algorithm

Substance	CD spectrum profile [2]	further results
SSKKSGSYSGSKGSKRRIL [Peptide R5]		silica precipitation and morphology [1]: highly efficient in precipitating monodisperse silica particles
RRILKRRIL [Peptide 1]	random coil conformation	secondary structure: beta-sheets [2, 5]: ~27%; secondary structure: beta-turns [2, 5]: ~17%; secondary structure: random coils [2, 5]: approximately 56%
rriil(εK)RRLL [Peptide 66]		capacity to precipitate silica [3]: still able to precipitate silica
rrilkrril [Peptide 2]	mirror image of the spectrum of peptide 1	
rril(εK)RRIL [Peptide 6]	significantly lower magnitudes than those for peptides 1-4	
rriIKRRIL [Peptide 5]	significantly lower magnitudes than those for peptides 1-4	
KRRIL (truncated silaffin peptide I)		silica precipitation and morphology [1]: precipitate silica with a random morphology
RRIIL(εK)RRIL (RRIIL[εLys]RRIL-OH; also: Lys6 bound via its epsilon amine to the preceding Leu (branched)) [Peptide 9]	profile was similar to that of peptides 1	
rril(εK)RRIIL [Peptide 7]	significantly lower magnitudes than those for peptides 1-4	
rriil(εK)RRIL [Peptide 8]	significantly lower magnitudes than those for peptides 1-4; also recorded: the minimum at 200 nm disappeared and the curve gained a positive character	diameter of peptide rods or narrow sheets (TEM) [4]: 80-200 nm
